# Results from the supplement of paper PMC10307832.
# Legend:
# Experiment in all cases: relative viability (nuclei count vs DMSO), 5 days (fraction); higher = more cells survive
# EMC-BAC-2 = tested on: EMC-BAC-2
# Procedure, shortened: (§1)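 Lung cancer cell lines were pin-tool dosed in 1536-well plates on the day after seeding, with either a lone drug or a fixed anchor-drug dose plus five library-drug doses (not always all listed) in √10 steps. Nuclei were counted on 4× images after 5 days. Relative viability is the ratio of treated-well to vehicle-well nuclei counts, with each value a median of duplicate plates.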
# LCLC-97TM1 = tested on: LCLC-97TM1
# Procedure, shortened: as §1
# NCI-H1355 = tested on: NCI-H1355
# Procedure, shortened: as §1
# NCI-H1666 = tested on: NCI-H1666
# Procedure, shortened: as §1
# NCI-H1755 = tested on: NCI-H1755
# Procedure, shortened: as §1
# NCI-H1793 = tested on: NCI-H1793
# Procedure, shortened: as §1
# NCI-H1944 = tested on: NCI-H1944
# Procedure, shortened: as §1
# NCI-H1975 = tested on: NCI-H1975
# Procedure, shortened: as §1
# NCI-H1993 = tested on: NCI-H1993
# Procedure, shortened: as §1
# NCI-H2009 = tested on: NCI-H2009
# Procedure, shortened: as §1
# NCI-H2126 = tested on: NCI-H2126
# Procedure, shortened: as §1
# NCI-H2170 = tested on: NCI-H2170
# Procedure, shortened: as §1
# NCI-H2347 = tested on: NCI-H2347
# Procedure, shortened: as §1
# NCI-H441 = tested on: NCI-H441
# Procedure, shortened: as §1
# NCI-H460 = tested on: NCI-H460
# Procedure, shortened: as §1
# NCI-H520 = tested on: NCI-H520
# Procedure, shortened: as §1
# NCI-H647 = tested on: NCI-H647
# Procedure, shortened: as §1
# NCI-H727 = tested on: NCI-H727
# Procedure, shortened: as §1
# PC-14 = tested on: PC-14
# Procedure, shortened: as §1
# PC-3 [JPC-3] = tested on: PC-3 [JPC-3]
# Procedure, shortened: as §1
# SK-LU-1 = tested on: SK-LU-1
# Procedure, shortened: as §1
# SW 1573 = tested on: SW 1573
# Procedure, shortened: as §1
smiles,measurement,setting,value
O=C(O)CCCCC(CCSCc1ccccc1)SCc1ccccc1 (centres undefined) [CPI-613] + CC1(C)CCC(c2ccc(Cl)cc2)=C(CN2CCN(c3ccc(C(=O)NS(=O)(=O)c4ccc(N[C@H](CCN5CCOCC5)CSc5ccccc5)c(S(=O)(=O)C(F)(F)F)c4)cc3)CC2)C1 [Navitoclax] (partner 0.5 µM),relative viability,EMC-BAC-2; first compound 5 µM,1.15
same,relative viability,EMC-BAC-2; first compound 15.81 µM,1.13
same,relative viability,EMC-BAC-2; first compound 50 µM,1.15
same,relative viability,EMC-BAC-2; first compound 158.11 µM,1.01
same,relative viability,EMC-BAC-2; first compound 500 µM,1.06
same,relative viability,LCLC-97TM1; first compound 5 µM,0.299
same,relative viability,LCLC-97TM1; first compound 15.81 µM,0.502
same,relative viability,LCLC-97TM1; first compound 50 µM,0.658
same,relative viability,LCLC-97TM1; first compound 158.11 µM,0.079
same,relative viability,LCLC-97TM1; first compound 500 µM,0.0431
same,relative viability,NCI-H1355; first compound 5 µM,0.993
same,relative viability,NCI-H1355; first compound 15.81 µM,0.988
same,relative viability,NCI-H1355; first compound 50 µM,1
same,relative viability,NCI-H1355; first compound 158.11 µM,0.593
same,relative viability,NCI-H1355; first compound 500 µM,0.128
same,relative viability,NCI-H1666; first compound 5 µM,0.944
same,relative viability,NCI-H1666; first compound 15.81 µM,1.16
same,relative viability,NCI-H1666; first compound 50 µM,1.03
same,relative viability,NCI-H1666; first compound 158.11 µM,0.296
same,relative viability,NCI-H1666; first compound 500 µM,0.212
same,relative viability,NCI-H1755; first compound 5 µM,0.945
same,relative viability,NCI-H1755; first compound 15.81 µM,0.934
same,relative viability,NCI-H1755; first compound 50 µM,0.935
same,relative viability,NCI-H1755; first compound 158.11 µM,0.831
same,relative viability,NCI-H1755; first compound 500 µM,0.161
same,relative viability,NCI-H1793; first compound 5 µM,0.393
same,relative viability,NCI-H1793; first compound 50 µM,0.346
same,relative viability,NCI-H1793; first compound 158.11 µM,0.363
same,relative viability,NCI-H1793; first compound 500 µM,0.1
same,relative viability,NCI-H1944; first compound 5 µM,0.998
same,relative viability,NCI-H1944; first compound 15.81 µM,1.01
same,relative viability,NCI-H1944; first compound 50 µM,1.02
same,relative viability,NCI-H1944; first compound 158.11 µM,0.769
same,relative viability,NCI-H1944; first compound 500 µM,0.627
same,relative viability,NCI-H1975; first compound 5 µM,0.988
same,relative viability,NCI-H1975; first compound 15.81 µM,1.1
same,relative viability,NCI-H1975; first compound 50 µM,1.08
same,relative viability,NCI-H1975; first compound 158.11 µM,0.816
same,relative viability,NCI-H1975; first compound 500 µM,0.0403
same,relative viability,NCI-H1993; first compound 5 µM,0.917
same,relative viability,NCI-H1993; first compound 15.81 µM,0.917
same,relative viability,NCI-H1993; first compound 50 µM,1.06
same,relative viability,NCI-H1993; first compound 158.11 µM,0.64
same,relative viability,NCI-H1993; first compound 500 µM,0.408
same,relative viability,NCI-H2009; first compound 5 µM,1.18
same,relative viability,NCI-H2009; first compound 15.81 µM,1.08
same,relative viability,NCI-H2009; first compound 50 µM,1.11
same,relative viability,NCI-H2009; first compound 158.11 µM,0.264
same,relative viability,NCI-H2009; first compound 500 µM,0.0303
same,relative viability,NCI-H2126; first compound 5 µM,0.9
same,relative viability,NCI-H2126; first compound 15.81 µM,0.805
same,relative viability,NCI-H2126; first compound 50 µM,0.815
same,relative viability,NCI-H2126; first compound 158.11 µM,0.662
same,relative viability,NCI-H2126; first compound 500 µM,0.645
same,relative viability,NCI-H2170; first compound 5 µM,0.6
same,relative viability,NCI-H2170; first compound 15.81 µM,0.573
same,relative viability,NCI-H2170; first compound 50 µM,0.593
same,relative viability,NCI-H2170; first compound 158.11 µM,0.396
same,relative viability,NCI-H2170; first compound 500 µM,0.0998
same,relative viability,NCI-H2347; first compound 5 µM,0.748
same,relative viability,NCI-H2347; first compound 15.81 µM,0.747
same,relative viability,NCI-H2347; first compound 50 µM,0.702
same,relative viability,NCI-H2347; first compound 158.11 µM,0.768
same,relative viability,NCI-H2347; first compound 500 µM,0.734
same,relative viability,NCI-H441; first compound 5 µM,0.564
same,relative viability,NCI-H441; first compound 15.81 µM,0.805
same,relative viability,NCI-H441; first compound 50 µM,0.731
same,relative viability,NCI-H441; first compound 158.11 µM,0.186
same,relative viability,NCI-H441; first compound 500 µM,0.0161
same,relative viability,NCI-H460; first compound 5 µM,1.12
same,relative viability,NCI-H460; first compound 15.81 µM,1.09
same,relative viability,NCI-H460; first compound 50 µM,1.03
same,relative viability,NCI-H460; first compound 158.11 µM,0.29
same,relative viability,NCI-H460; first compound 500 µM,0.0105
same,relative viability,NCI-H520; first compound 5 µM,0.932
same,relative viability,NCI-H520; first compound 15.81 µM,1.1
same,relative viability,NCI-H520; first compound 50 µM,1.18
same,relative viability,NCI-H520; first compound 158.11 µM,0.355
same,relative viability,NCI-H520; first compound 500 µM,0.154
same,relative viability,NCI-H647; first compound 5 µM,1.05
same,relative viability,NCI-H647; first compound 15.81 µM,1.11
same,relative viability,NCI-H647; first compound 50 µM,0.963
same,relative viability,NCI-H647; first compound 158.11 µM,0.875
same,relative viability,NCI-H647; first compound 500 µM,0.238
same,relative viability,NCI-H727; first compound 5 µM,0.386
same,relative viability,NCI-H727; first compound 15.81 µM,0.337
same,relative viability,NCI-H727; first compound 50 µM,0.331
same,relative viability,NCI-H727; first compound 158.11 µM,0.0645
same,relative viability,NCI-H727; first compound 500 µM,0.046
same,relative viability,PC-14; first compound 5 µM,1
same,relative viability,PC-14; first compound 15.81 µM,1.05
same,relative viability,PC-14; first compound 50 µM,1
same,relative viability,PC-14; first compound 158.11 µM,0.869
same,relative viability,PC-14; first compound 500 µM,1.16
same,relative viability,PC-3 [JPC-3]; first compound 5 µM,0.819
same,relative viability,PC-3 [JPC-3]; first compound 15.81 µM,0.7
same,relative viability,PC-3 [JPC-3]; first compound 50 µM,0.696
same,relative viability,PC-3 [JPC-3]; first compound 158.11 µM,0.448
same,relative viability,PC-3 [JPC-3]; first compound 500 µM,0.469
same,relative viability,SK-LU-1; first compound 5 µM,0.78
same,relative viability,SK-LU-1; first compound 15.81 µM,0.586
same,relative viability,SK-LU-1; first compound 50 µM,0.857
same,relative viability,SK-LU-1; first compound 158.11 µM,0.195
same,relative viability,SK-LU-1; first compound 500 µM,0.156
same,relative viability,SW 1573; first compound 5 µM,0.871
same,relative viability,SW 1573; first compound 15.81 µM,0.962
same,relative viability,SW 1573; first compound 50 µM,0.792
same,relative viability,SW 1573; first compound 158.11 µM,0.819
same,relative viability,SW 1573; first compound 500 µM,0.904
